Measured values from patent publication US20130064712A1, “Composite comprising at least one type of perfluoroalkyl-perfluoro-phthalocyanine” (priority 2009, published 2013).

Key:
[1] = Singlet oxygen quantum yield; type: physicochemical
Jurkat cells = assay: Accumulation of free F64PcZn in Jurkat cells; type: cell-based, human; details: free F64PcZn incubated with the cell suspensions
Description: If the composite is used also on human skin there is a probability of PS loss by the photoactive foil. In order to protect the human body against undesired phototoxic effects it is important to make sure that the free molecules are not able to enter human cells.
Laser Phys. 13:22-29 b) M. Regehly , K. Greish, F. Rancan, H. Maeda, B. Röder: Water-soluble polymer conjugates of ZnPP for photodynamic therapy, Bioconjugate Chemistry, 18 (2007) 494-499. c) K. Chen, A. Preuβ, S. Hackbarth, M. Wacker, K. Langer, B. Röder: Novel photosensitizer-protein nanoparticles for Photodynamic Therapy: Photophysical characterization and in vitro investigations, J. Photochem. Photobiol.: B, in press May 2009). It is important to mention that phthalocyanines also belong to the class of tetrapyroles and thus the above comparison is meaningful. Thus, incubating the cell suspensions according to the procedure described in a) Paul A, Hackbarth S, Mölich A, Seifert M, Röder B (2003) Comparative Study on the Photosensitization of Jurkat Cells in vitro by Pheophorbide-a and a Pheophorbide-a Diaminobutane polypropylene-imine Dendrimer Complex. Laser Phys. […]

For “1, 4, 8, 11, 15, 18, 22, 25-octafluoro-2, 3, 9, 10, 16, 17, 23, 24-octa-perfluoro-isopropyl-phthalocyanine [F64PcZn]”, which “singlet oxygen quantum yield” value [1] is on record?
The value was “around 56%”.

What about the “accumulation of the dye inside the cells” value (Jurkat cells) of the same substance?
Its value is “undetectable accumulation”.
